Reference: PubChem BioAssay AID2060506 (Molecular Pharmacology Branch, DTP, NCI, 2025)

System: 598228-144-R-J1-PDC complex spheroid viability
Assay: Anticancer human tumor 598228-144-R-J1-PDC patient-derived serous endometrial adenocarcinoma cell line growth inhibition [GQUAD]
Conditions: for IC50: curve of first compound; for viability, T/C: stronger effect = lower value
How it was run: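 Tumor cells were grown as complex spheroids with HUVEC endothelial cells and mesenchymal stem cells as stroma. G-quadruplex stabilizers were combined with targeted agents over half-log dilutions from near the clinical Cmax, or from 10 microM.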

[1] = second compound 0.0316 µM, first compound 0.0316 µM
[2] = second compound 0.0316 µM, first compound 0.1 µM
[3] = second compound 0.0316 µM, first compound 0.316 µM
[4] = second compound 0.0316 µM, first compound 1 µM
[5] = second compound 0.0316 µM, first compound 3.16 µM
[6] = second compound 0.0316 µM, first compound 10 µM
[7] = second compound 0.1 µM, first compound 0.0316 µM
[8] = second compound 0.1 µM, first compound 0.1 µM
[9] = second compound 0.1 µM, first compound 0.316 µM
[10] = second compound 0.1 µM, first compound 1 µM
[11] = second compound 0.1 µM, first compound 3.16 µM
[12] = second compound 0.1 µM, first compound 10 µM
[13] = second compound 0.316 µM, first compound 0.0316 µM
[14] = second compound 0.316 µM, first compound 0.1 µM
[15] = second compound 0.316 µM, first compound 0.316 µM
[16] = second compound 0.316 µM, first compound 1 µM
[17] = second compound 0.316 µM, first compound 3.16 µM
[18] = second compound 0.316 µM, first compound 10 µM
[19] = second compound 1 µM, first compound 0.0316 µM
[20] = second compound 1 µM, first compound 0.1 µM
[21] = second compound 1 µM, first compound 0.316 µM
[22] = second compound 1 µM, first compound 1 µM
[23] = second compound 1 µM, first compound 3.16 µM
[24] = second compound 1 µM, first compound 10 µM
[25] = second compound 3.16 µM, first compound 0.0316 µM
[26] = second compound 3.16 µM, first compound 0.1 µM
[27] = second compound 3.16 µM, first compound 0.316 µM
[28] = second compound 3.16 µM, first compound 1 µM
[29] = second compound 3.16 µM, first compound 3.16 µM
[30] = second compound 3.16 µM, first compound 10 µM
[31] = second compound 10 µM, first compound 0.0316 µM
[32] = second compound 10 µM, first compound 0.1 µM
[33] = second compound 10 µM, first compound 0.316 µM
[34] = second compound 10 µM, first compound 1 µM
[35] = second compound 10 µM, first compound 3.16 µM
[36] = second compound 10 µM, first compound 10 µM
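Further: spheroids exposed to the agents for one week before reading.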
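Wherever viability, T/C is given: percent of vehicle DMSO control viability so 100% = untreated growth.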

How did the IC50 (second compound 0.0316 µM) turn out when `COc1cc(C2c3cc4c(cc3C(OC3OC5COC(C)OC5C(O)C3O)C3COC(=O)C23)OCO4)cc(OC)c1O` (stereo unspecified) + Cc1[nH]c2ccc(F)cc2c1-c1nc2c3cccnc3c3ncccc3c2[nH]1 was run?
Its IC50 is > 10 µM.

And the IC50 (second compound 0.1 µM)?
Its IC50 is > 10 µM.

And the IC50 (second compound 0.316 µM)?
The IC50 was > 10 µM.

What about the IC50 (second compound 1 µM) of the same compound?
The IC50 was 4.15 µM.

What about the IC50 (second compound 3.16 µM) of the same compound?
Its IC50 is < 0.0316 µM.

And the IC50 (second compound 10 µM)?
The IC50 was 4.49 µM.

And the viability, T/C [1]?
Its viability, T/C is 91.8%.

What about the viability, T/C [2] of the same compound?
Its viability, T/C is 85.6%.

And the viability, T/C [3]?
Its viability, T/C is 87%.

And the viability, T/C [4]?
Its viability, T/C is 71%.

And the viability, T/C [5]?
Its viability, T/C is 60.4%.

And the viability, T/C [6]?
The viability, T/C was 51.3%.

What about the viability, T/C [7] of the same compound?
The viability, T/C was 92.9%.

And the viability, T/C [8]?
The viability, T/C was 77.5%.

What about the viability, T/C [9] of the same compound?
Its viability, T/C is 66.2%.

What about the viability, T/C [10] of the same compound?
Its viability, T/C is 71.8%.

And the viability, T/C [11]?
Its viability, T/C is 68.7%.

And the viability, T/C [12]?
The viability, T/C was 48.6%.

And the viability, T/C [13]?
The viability, T/C was 119%.

And the viability, T/C [14]?
The viability, T/C was 72%.

What about the viability, T/C [15] of the same compound?
The viability, T/C was 76.7%.

What about the viability, T/C [16] of the same compound?
Its viability, T/C is 66%.

What about the viability, T/C [17] of the same compound?
The viability, T/C was 66%.

And the viability, T/C [18]?
Its viability, T/C is 47.6%.

What about the viability, T/C [19] of the same compound?
Its viability, T/C is 62.6%.

And the viability, T/C [20]?
The viability, T/C was 59.5%.

And the viability, T/C [21]?
Its viability, T/C is 58.5%.

What about the viability, T/C [22] of the same compound?
Its viability, T/C is 44.7%.

What about the viability, T/C [23] of the same compound?
Its viability, T/C is 62%.

What about the viability, T/C [24] of the same compound?
Its viability, T/C is 43.1%.

And the viability, T/C [25]?
Its viability, T/C is 43.2%.

And the viability, T/C [26]?
Its viability, T/C is 42%.

What about the viability, T/C [27] of the same compound?
Its viability, T/C is 39.3%.

And the viability, T/C [28]?
The viability, T/C was 46.2%.

What about the viability, T/C [29] of the same compound?
The viability, T/C was 38.2%.

What about the viability, T/C [30] of the same compound?
Its viability, T/C is 43.5%.

What about the viability, T/C [31] of the same compound?
Its viability, T/C is 54.6%.

What about the viability, T/C [32] of the same compound?
The viability, T/C was 62.9%.

And the viability, T/C [33]?
The viability, T/C was 55.7%.

And the viability, T/C [34]?
Its viability, T/C is 47.9%.

And the viability, T/C [35]?
The viability, T/C was 61.9%.

What about the viability, T/C [36] of the same compound?
Its viability, T/C is 34.9%.

How did the IC50 (second compound 0.0316 µM) turn out when `O=C(NO)c1cnc(N2CCN(S(=O)(=O)c3ccc4ccccc4c3)CC2)nc1` + Cc1[nH]c2ccc(F)cc2c1-c1nc2c3cccnc3c3ncccc3c2[nH]1 was run?
Its IC50 is 0.187 µM.

What about the IC50 (second compound 0.1 µM) of the same compound?
The IC50 was 0.248 µM.

What about the IC50 (second compound 0.316 µM) of the same compound?
Its IC50 is 0.209 µM.

And the IC50 (second compound 1 µM)?
The IC50 was 0.123 µM.

What about the IC50 (second compound 3.16 µM) of the same compound?
The IC50 was < 0.0316 µM.

And the IC50 (second compound 10 µM)?
Its IC50 is 0.127 µM.

And the viability, T/C [1]?
The viability, T/C was 120%.

And the viability, T/C [2]?
The viability, T/C was 80.4%.

And the viability, T/C [3]?
The viability, T/C was 25.1%.

And the viability, T/C [4]?
Its viability, T/C is 0.4%.

What about the viability, T/C [5] of the same compound?
The viability, T/C was 0.21%.

What about the viability, T/C [6] of the same compound?
Its viability, T/C is 0.21%.

And the viability, T/C [7]?
The viability, T/C was 99.4%.

And the viability, T/C [8]?
Its viability, T/C is 97.2%.

What about the viability, T/C [9] of the same compound?
Its viability, T/C is 37.5%.

And the viability, T/C [10]?
Its viability, T/C is 0.48%.

And the viability, T/C [11]?
The viability, T/C was 0.3%.

What about the viability, T/C [12] of the same compound?
Its viability, T/C is 0.23%.

And the viability, T/C [13]?
Its viability, T/C is 94.3%.

And the viability, T/C [14]?
The viability, T/C was 90.2%.

What about the viability, T/C [15] of the same compound?
The viability, T/C was 27.6%.

And the viability, T/C [16]?
Its viability, T/C is 0.67%.

What about the viability, T/C [17] of the same compound?
The viability, T/C was 0.25%.

What about the viability, T/C [18] of the same compound?
Its viability, T/C is 0.34%.

What about the viability, T/C [19] of the same compound?
Its viability, T/C is 62.3%.

What about the viability, T/C [20] of the same compound?
Its viability, T/C is 52.7%.

And the viability, T/C [21]?
The viability, T/C was 28.8%.

And the viability, T/C [22]?
The viability, T/C was 1%.

And the viability, T/C [23]?
Its viability, T/C is 0.31%.

What about the viability, T/C [24] of the same compound?
The viability, T/C was 0.56%.

What about the viability, T/C [25] of the same compound?
The viability, T/C was 39.8%.

And the viability, T/C [26]?
The viability, T/C was 29.3%.

What about the viability, T/C [27] of the same compound?
Its viability, T/C is 19.3%.

And the viability, T/C [28]?
Its viability, T/C is 0.37%.

What about the viability, T/C [29] of the same compound?
Its viability, T/C is 0.44%.

And the viability, T/C [30]?
Its viability, T/C is 0.51%.

And the viability, T/C [31]?
Its viability, T/C is 67.4%.

What about the viability, T/C [32] of the same compound?
Its viability, T/C is 54.9%.

And the viability, T/C [33]?
Its viability, T/C is 27.5%.

And the viability, T/C [34]?
The viability, T/C was 1.72%.

And the viability, T/C [35]?
The viability, T/C was 0.78%.

What about the viability, T/C [36] of the same compound?
The viability, T/C was 0.43%.

With `C=CCn1c(=O)c2cnc(Nc3ccc(N4CCN(C)CC4)cc3)nc2n1-c1cccc(C(C)(C)O)n1` + Cc1[nH]c2ccc(F)cc2c1-c1nc2c3cccnc3c3ncccc3c2[nH]1 as the compound, how does the IC50 (second compound 0.0316 µM) read?
Its IC50 is 0.999 µM.

And the IC50 (second compound 0.1 µM)?
The IC50 was > 10 µM.

And the IC50 (second compound 0.316 µM)?
The IC50 was > 10 µM.

What about the IC50 (second compound 1 µM) of the same compound?
Its IC50 is > 10 µM.

And the IC50 (second compound 3.16 µM)?
Its IC50 is < 0.0316 µM.

And the IC50 (second compound 10 µM)?
Its IC50 is > 10 µM.

What about the viability, T/C [1] of the same compound?
Its viability, T/C is 110%.

What about the viability, T/C [2] of the same compound?
Its viability, T/C is 102%.

What about the viability, T/C [3] of the same compound?
The viability, T/C was 83.2%.

What about the viability, T/C [4] of the same compound?
Its viability, T/C is 48.3%.

And the viability, T/C [5]?
Its viability, T/C is 47.1%.

And the viability, T/C [6]?
Its viability, T/C is 52.8%.

What about the viability, T/C [7] of the same compound?
Its viability, T/C is 125%.

What about the viability, T/C [8] of the same compound?
Its viability, T/C is 84.6%.

And the viability, T/C [9]?
The viability, T/C was 62.5%.

What about the viability, T/C [10] of the same compound?
Its viability, T/C is 53.4%.

And the viability, T/C [11]?
Its viability, T/C is 52.8%.

And the viability, T/C [12]?
Its viability, T/C is 55.9%.

What about the viability, T/C [13] of the same compound?
The viability, T/C was 77.7%.

What about the viability, T/C [14] of the same compound?
The viability, T/C was 75.4%.

What about the viability, T/C [15] of the same compound?
Its viability, T/C is 66.1%.

What about the viability, T/C [16] of the same compound?
The viability, T/C was 48.9%.

What about the viability, T/C [17] of the same compound?
Its viability, T/C is 55.6%.

And the viability, T/C [18]?
Its viability, T/C is 62.4%.

And the viability, T/C [19]?
Its viability, T/C is 52%.

What about the viability, T/C [20] of the same compound?
The viability, T/C was 59.8%.

And the viability, T/C [21]?
Its viability, T/C is 46.7%.

What about the viability, T/C [22] of the same compound?
Its viability, T/C is 48.7%.

And the viability, T/C [23]?
The viability, T/C was 55%.

What about the viability, T/C [24] of the same compound?
Its viability, T/C is 74.5%.

What about the viability, T/C [25] of the same compound?
Its viability, T/C is 40.1%.

What about the viability, T/C [26] of the same compound?
Its viability, T/C is 35.1%.

And the viability, T/C [27]?
Its viability, T/C is 39.9%.

What about the viability, T/C [28] of the same compound?
The viability, T/C was 44.6%.

What about the viability, T/C [29] of the same compound?
The viability, T/C was 59%.

And the viability, T/C [30]?
Its viability, T/C is 62.3%.

And the viability, T/C [31]?
The viability, T/C was 73.6%.

What about the viability, T/C [32] of the same compound?
The viability, T/C was 54.6%.

And the viability, T/C [33]?
Its viability, T/C is 50.4%.

And the viability, T/C [34]?
The viability, T/C was 42.4%.

What about the viability, T/C [35] of the same compound?
The viability, T/C was 52.2%.

What about the viability, T/C [36] of the same compound?
Its viability, T/C is 57.7%.
